According to patent US20090169540A1, “Use Of An Antagonist Of Epac For Treating Human Cardiac Hypertrophy” (priority 2005, published 2009):
Read-outs that look alike come from different tables or passages of the source.

How the values were obtained:
[1] = system: neonatal rat ventricular myocytes; assay: Cell surface area by computer-assisted planimetry, neonatal cardiomyocytes; format: cell-based; conditions: for Cell surface area: 8-CPT 1 μM or PE 1 μM or adenovirus, compared to control Ad.GFP
ANF promoter (ANF-Luc) = assay: ANF-Luc reporter gene assay in neonatal cardiomyocytes; format: cell-based, rat; conditions: 8-CPT 1 μM, compared to control cells
Description: FIGS. 2A, 2C and 2D: Neonatal cardiomycoytes were transfected with ANF-Luc (FIG. 2A), SkM-α-actin-Luc (FIG. 2C) or c-fos-SRE-Luc (FIG. 2D) and EpacWT, RacG12V or the empty vector (mock) as control and treated or not with 8-CPT (1 μM). Two days after transfection, cells were assayed for luciferase activity. Results are expressed as percentage activation of control. Results are means±S.E.M. for 3 independent experiments performed in triplicates.
In FIGS. 8A, 8B and 8C, cardiomyocytes infected with Ad.GFP (control), Ad.RacS17N, Ad.EpacWT, or Ad.EpacWT and Ad.RacS17N were transfected with NFAT-Luc, MEF2-Luc or ANF-Luc. Two days after, Luc activity was determined. Luc activity was normalized to control for each experiment, and were expressed as means±S.E.M of at least 3 separate experiments performed in triplicate
The plasmid constructs were generously provided by the following: a −3003 bp fragment of the rat ANF promoter fused to the luciferase reporter gene (ANF-Luc) by Dr. K. Knowlton, Luciferase reporter genes linked to promoters for skeletal muscle α-actin (SkM-α-actin-Luc) and serum response element-regulated c-fos (c-fos-SRE-Luc) by Dr. M. D. Schneider, Epac1 plasmid constructs by Dr. J. Bos. […]

Rac [2] = assay: Rac activation assay (Rac-GTP pull-down), HL-1 atrial cells; format: cell-based, mouse
Description: Rac activation was determined as above. […] Rac-GTP samples and total lysates were separated on SDS-PAGE gels and transferred onto a polyvinylidene difluoride (PVDF) membrane (Amersham Pharmacia Biotech).

[3] = system: neonatal rat ventricular myocytes; format: cell-based
Rac [4] = assay: Rac activation assay (Rac-GTP pull-down), primary rat ventricular cardiomyocytes; format: cell-based
[5] = system: neonatal rat ventricular myocytes; assay: [3H]-leucine incorporation (protein synthesis), neonatal cardiomyocytes; format: cell-based; conditions: 8-CPT 1 μM, PE 1 μM or adenovirus
[6] = system: neonatal rat ventricular myocytes; assay: Sarcomeric / cytoskeletal organization by phalloidin staining, neonatal cardiomyocytes; format: cell-based; conditions: 48 h; 8-CPT (1 mM) and PE (1 mM) as printed, in Ad.GFP cells; vs Ad.GFP alone
[7] = cited from earlier work
MEF2 (MEF2-Luc) = assay: MEF2-Luc transcriptional activity in cardiomyocytes; format: cell-based, rat; conditions: cells infected with Ad.EpacWT or Ad.Epac-DcAMP; CsA 0.5 μM, KN-93 1 μM, or co-infection

Structure (SMILES): CO[C@@H]1[C@@H]2OP(=O)(O)OC[C@H]2O[C@H]1n1c(Sc2ccc(Cl)cc2)nc2c(N)ncnc21 [8-CPT, 8-(4-chloro-phenylthio)-2′-O-methyladenosine-3′-5′cyclic monophosphate]
- Cell surface area ([1]; 2 days): two fold increase
- Effect of Ad.EpacWT on cell surface area in the presence of 8-CPT ([1]; Ad.EpacWT-infected cells plus 8-CPT 1 μM): not further increased
- Activation of the ANF-Luc reporter gene (ANF promoter (ANF-Luc)): three fold activation
- Amount of Rac-GTP / Rac activation (Rac [2]; HL-1 adult mouse atrial cells, 100 μM, 10 min exposure): strong increase in the amount of Rac-GTP
- Treatment time upon which 8-CPT-induced Rac activation was detected (Rac [2]; HL-1 cells, 8-CPT 10 μM time course (FIG. 1C)): 5 min
- Frequency of spontaneous Ca2+ transients [3]: 0.51±0.04 Hz
- Frequency of spontaneous Ca2+ transients ([3]; 8-CPT 100 nM, physiological external [Ca2+], n=13): 0.40±0.05 Hz
- Ca2+ spike frequency ([3]; 8-CPT 10 μM in the presence of 20 mM external Cs+, n=8): 1.25±0.35 Hz
- Effect on Ca2+ transients ([3]; 8-CPT 10 μM, absence of external Ca2+): had no effect
- Amplitude of Ca2+ spikes ([3]; 8-CPT 10 μM, physiological external [Ca2+]): without changing the amplitude of the spikes
- Ca2+ spike frequency ([3]; 8-CPT 100 μM, absence of external Ca2+, n=4): 0.12±0.02 Hz
- Ca2+ spike frequency ([3]; 8-CPT 100 μM, absence of external Ca2+, presence of H89 1 μM, n=8): 0.23±0.049 Hz
- Rac activation in cells infected with Ad.EpacWT (Rac [4]; Ad.EpacWT-infected cells treated with 8-CPT 1 μM for 10 min): further increased
- Rac activation (Rac-GTP) (Rac [4]; activation of endogenous Epac, 8-CPT 1 μM, 10 min, rat cardiac myocytes): increased Rac activation
- Protein synthesis ([3H]-leucine uptake) [5]: approximate two fold increase
- Cytoskeletal (F-actin) / sarcomeric organization [6]: apparent increase of the F-actin meshwork and an heavily striated appearance

Structure (SMILES): CCCCc1oc2ccccc2c1C(=O)c1cc(I)c(OCCN(CC)CC)c(I)c1 [Amiodarone]
- Hypothyroidism incidence ([7]; as high as, in some series): 8%-19%
- Hyperthyroidism incidence ([7]; human, in vivo): about 2%
- Liver function test abnormalities incidence ([7]; human, in vivo): 4%-9%
- Other serious side effect ([7]; human, in vivo): optic neuropathy, which can lead to blindness
- Proarrhythmia incidence ([7]; human, in vivo): 2%-5%
- Hypothyroidism incidence ([7]; in some cases): 2%-4%

Structure (SMILES): O=S(=O)(NCCNC/C=C/c1ccc(Br)cc1)c1cccc2cnccc12 [H89]
- 8-CPT-induced increase in Ca2+ transients frequency ([3]; H89 1 μM, 8-CPT 100 μM, absence of external Ca2+): failed to block

Structure (SMILES): COc1ccc(S(=O)(=O)N(CCO)c2ccccc2CN(C)C/C=C/c2ccc(Cl)cc2)cc1 [KN-93]
- Epac-induced MEF2 transcriptional (luciferase) activity (MEF2 (MEF2-Luc)): completely blocked
- Ad.Epac-DcAMP-induced increase in cell surface area ([1]; KN-93 1 μM, 2 days): significantly decreased

Structure (SMILES): CNC[C@H](O)c1cccc(O)c1 [PE, phenylephrine]
- Cell surface area ([1]; 2 days): Identical results
- Protein synthesis ([3H]-leucine uptake) [5]: approximate two fold increase
- Cytoskeletal (F-actin) / sarcomeric organization [6]: comparable

Structure (SMILES): C[C@H](CCC(=O)O)C[C@H](C)C[C@H](C)C(=O)/C=C(\O)[C@H](C)C[C@H](C)C/C=C/[C@@H](C)[C@@H](O)[C@@H](C)[C@@H](O)C[C@@H]1CC[C@@](C)([C@H]2CC[C@@](C)([C@@H](C)O)O2)O1 [ionomycin]
- Effect on Rac activation relative to positive control PE (1 μM) (Rac [4]; ionomycin 1 μM vs PE 1 μM 15 min): as potent as PE
- Rac activation (Rac [4]; ionomycin 1 μM, different times of incubation): increased Rac activation in a time dependent manner
